Source: publication PMC9606187, “Dual HDAC/BRD4 Inhibitors Relieves Neuropathic Pain by Attenuating Inflammatory Response in Microglia After Spared Nerve Injury” (Neurotherapeutics, 2022)

Legend:
HDAC1 = biological target: T1, HDAC1 (Homo sapiens, UniProt Q13547); assay: HDAC1 immunoprecipitation & activity assay on treated HCT-116 cells; type: cell-based; conditions: HCT-116 cells treated at 10 µM for 12 h; in comparison with SAHA
T1 construct: endogenous in cells; host or cells: HCT-116
Procedure: HDAC assay: To test the inhibition activity of compounds, the HDAC1 immunoprecipitation (IP) & Activity Assay Kit (Catalog # K342-25; Biovision) was used under the protocol provided by the kit. HCT-116 cell lines were plated in 6 wells and treated with the investigated compounds at 10 µM for 12 h. After incubation, the media was removed, and the cells were washed with PBS (EuroClone) solution (2X). Then, 200 µl/well of lysis buffer with protease inhibitor was added and the cells were scraped and incubated in ice for 30 min. After centrifugation at 10,000 g for 10 min at 4 °C, the supernatant was collected. One hundred micrograms of each extract was incubated with 6 µl of Rabbit HDAC1 antibody and Rabbit IgG and the volume was reached to 500 µl with PBS with protease inhibitors. After incubation at 4 °C overnight a rotary mixer, 25 µl of the protein-A/G bead slurry, previously washed with PBS (2X), was added to the samples and incubated for 1 h at 4 °C. The beads were recovered after 3 washes with 1 ml PBS, by centrifuging at 14,000 g for ~ 10 s and used for HDAC assay.
HDAC assay preparation: For each reaction, 168 µl reaction mix containing HDAC assay buffer and HDAC substrate was prepared, added to the sample and to background control tube, and incubated at 37 °C for 2 h. SAHA was used as a positive control. […] The fluorescence was read at Ex/Em = 380/500 nm with Tecan M1000 plate reader.

naïve mice = assay: Hot plate test, acute thermal pain in naïve mice; type: in vivo
Source text: Mice were randomly assigned to each treatment group. To evaluate the pharmacological profile of SUM35 (N-hydroxy-6-(1-methyl-6-phenyl-4H-benzo[f][1,2,4]triazolo[4,3-a][1,4]diazepin-8-yl)hex-5-ynamide), SUM52 ((S)-N-hydroxy-7-(2-(1-methyl-6-phenyl-4H-benzo[f][1,2,4]triazolo[4,3-a][1,4]diazepin-4-yl)acetamido)heptanamide) (Fig. 1F), synthesized in the laboratory of Prof. Maria Novella Romanelli, iBET762 (molibresib; (4S)-6-(4-Chlorophenyl)-N-ethyl-8-methoxy-1-methyl-4H-[1,2,4]triazolo[4,3,a][1,4] benzodiazepine-4-acetamide, and SAHA (vorinostat; suberoylanilide hydroxamic acid) (Sigma-Aldrich, Italy) were administered 15 min before the tests. Drugs were dissolved in 5% DMSO. Drug concentrations were prepared in such a way that the necessary dose could be administered in a volume of 10 µl per mouse by intranasal (i.n.) administration. The experimental protocol to test the effect of treatments on behavioral and in vitro tests included 3 control groups: untreated, vehicle (5% DMSO), and saline. A representative figure of the experimental protocol in naïve (C) and SNI (F) mice has been inserted in Supplementary Fig. 1.
For i.n. administration, mice were slightly anesthetized by 2% isoflurane inhalation and placed in a supine position. A 5 μl aliquot of solution (treatments or vehicle) was slowly dropped alternatively to each nostril with a micropipette tip.
Animals were habituated to the testing environment daily for at least 2 days before baseline testing. To evaluate onset and progression of pain hypersensitivity, neuropathic mice were monitored by measuring nociceptive responses every 30 min for 3 h before surgery or 3, 7, 10, and 14 days after nerve surgery. Experiments were performed on post-surgery day 7 and 14 when the pain hypersensitivity was well established. Each mouse served as its own control, the responses being measured both before and after surgery. All testing was performed with a blind procedure.

[1] = test system: MAPK p38 (phosphorylated); assay: Western blot of lumbar spinal cord, p-p38; type: in vivo, mice; conditions: SNI ipsilateral side, day 7 and 14
Procedure: (§1) The lumbar spinal cord was removed 7 and 14 days after surgery and 90 min after the intranasal administration of SUM52, corresponding to the peack of the effect. Samples (n = 4 for groups) were homogenized in a homogenization buffer and processed as previously described. Protein samples (40 µg of protein/sample) were separated on 10% SDS-PAGE and transferred onto nitrocellulose membranes (120 min at 100 V) using standard procedures. Membranes were blocked in PBST (PBS containing 0.1% Tween) containing 5% nonfat dry milk for 120 min. […] Blots were then extensively washed and developed using enhanced chemiluminescence detection system (Pierce, Milan, Italy) and signal intensity (pixels/mm^2) quantified (ImageJ, NIH). […] For each sample, the signal intensity was normalized to that of total protein stained by Ponceau S and the acquired images were quantified using Image Lab software. […]

IL-1ß = assay: Western blot of lumbar spinal cord, IL-1ß; type: in vivo, mice; conditions: SNI ipsilateral side, day 7 and 14
Procedure: as §1

T1 sequence (Q13547 whole entry): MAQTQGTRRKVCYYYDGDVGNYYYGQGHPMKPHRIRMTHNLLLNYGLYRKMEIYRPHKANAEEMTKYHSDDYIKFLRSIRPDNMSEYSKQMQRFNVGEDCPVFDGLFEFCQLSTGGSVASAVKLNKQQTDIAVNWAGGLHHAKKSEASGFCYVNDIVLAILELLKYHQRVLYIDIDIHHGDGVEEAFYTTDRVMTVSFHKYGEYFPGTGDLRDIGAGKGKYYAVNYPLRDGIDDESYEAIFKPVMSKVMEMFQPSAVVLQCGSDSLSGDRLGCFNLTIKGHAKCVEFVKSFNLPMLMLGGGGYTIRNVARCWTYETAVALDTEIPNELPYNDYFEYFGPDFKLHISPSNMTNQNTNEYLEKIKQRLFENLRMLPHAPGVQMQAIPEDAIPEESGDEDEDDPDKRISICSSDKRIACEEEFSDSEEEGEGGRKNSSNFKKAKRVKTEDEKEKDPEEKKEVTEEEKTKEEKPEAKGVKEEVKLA

Cc1nnc2n1-c1ccccc1C(c1ccccc1)=N[C@H]2CC(=O)NCCCCCCC(=O)NO [SUM52, (S)-N-hydroxy-7-(2-(1-methyl-6-phenyl-4H-benzo[f][1,2,4]triazolo[4,3-a][1,4]diazepin-4-yl)acetamido)heptanamide]
inhibition of HDAC1 enzymatic activity (HDAC1): Partial inhibition
thermal antinociceptive effect (hot plate) (naïve mice; 5 µM i.n., 90 min after administration): ineffective
thermal antinociceptive effect (hot plate) (naïve mice; 50 µM i.n., 90 min after administration): trend toward an increase in the pain threshold
time at which the antinociceptive effect disappeared (hot plate) (naïve mice; 100 µM i.n.): 120 min
time of peak of antinociceptive activity (hot plate) (naïve mice; 100 µM i.n.): 90 min
thermal antinociceptive effect (hot plate) (naïve mice; 100 µM i.n., normalized to control, compared to SUM35 100 µM): significant analgesic effect
thermal antinociceptive effect (hot plate), whole dose range (naïve mice; 5 to 500 µM i.n.): showed thermal antinociceptive effects
thermal antinociceptive effect (hot plate) (naïve mice; doses higher than 100 µM (up to 500 µM) i.n.): progressive reduction of efficacy
phosphorylation of MAPK p38 [1]: drastically reduced
IL-1ß expression (IL-1ß): drastically reduced
